Values joined by “and” are separate entries in the source; they are usually repeats but may differ in a detail not shown here. Equal entries are not always repeated. Where two headings read alike, the source gives them in different places.
Key:
Assay type in all cases: cell-based
[1] = target: T1, human muscarinic acetylcholine M1 receptor (M1R) (Homo sapiens, UniProt P11229); experiment: Ca2+ mobilization counter-screen in M1R-CHOk1 cells; details: individual replicates (Supplementary Figure 5);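 note: 10 µM test compound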
T1 sequence (P11229 1-460): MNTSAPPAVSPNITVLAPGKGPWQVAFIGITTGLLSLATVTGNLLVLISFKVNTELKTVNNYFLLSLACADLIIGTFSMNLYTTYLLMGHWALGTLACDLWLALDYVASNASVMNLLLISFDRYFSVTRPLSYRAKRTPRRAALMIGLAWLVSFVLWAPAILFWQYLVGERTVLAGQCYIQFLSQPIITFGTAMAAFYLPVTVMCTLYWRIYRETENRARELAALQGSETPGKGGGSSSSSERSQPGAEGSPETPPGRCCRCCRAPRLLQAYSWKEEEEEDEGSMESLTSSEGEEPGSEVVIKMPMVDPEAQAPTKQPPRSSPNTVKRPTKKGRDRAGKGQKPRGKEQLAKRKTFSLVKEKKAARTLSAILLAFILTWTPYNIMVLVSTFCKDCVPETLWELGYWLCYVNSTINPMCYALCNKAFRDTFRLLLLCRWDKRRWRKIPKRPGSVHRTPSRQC
Outline: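 Counter-screen used CHO-K1 cells stably carrying human M1R, Fluo-4 AM-loaded (2 µM, 1 h, 37 °C). Calcium signal measured at 485/525 nm after compound addition.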

GPR139 [2] = target: T2, GPR139 (Homo sapiens, UniProt Q6DWJ6); experiment: Ca2+ mobilization assay, agonist mode, stable GPR139-CHOk1 cell line; details: for Emax: normalized to Lundbeck Cmp 1a, read-out: Emax (%) Ca2+; for fold decrease in potency relative to a similar phenyl substituted compound (1.3): Ca2+ mobilization EC50
T2 sequence (Q6DWJ6 1-353): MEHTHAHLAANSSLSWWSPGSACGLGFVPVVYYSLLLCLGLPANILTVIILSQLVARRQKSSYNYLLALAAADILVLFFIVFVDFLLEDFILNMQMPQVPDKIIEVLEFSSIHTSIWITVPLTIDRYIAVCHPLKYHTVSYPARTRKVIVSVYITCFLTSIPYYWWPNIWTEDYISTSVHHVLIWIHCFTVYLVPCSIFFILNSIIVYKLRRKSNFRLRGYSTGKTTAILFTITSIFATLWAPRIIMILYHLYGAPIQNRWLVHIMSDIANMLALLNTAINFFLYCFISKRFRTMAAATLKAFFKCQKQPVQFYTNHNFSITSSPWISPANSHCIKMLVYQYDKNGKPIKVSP
Outline: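 Agonist activity of compounds is assessed in stably transfected CHO-K1 cells using the calcium dye Fluo-4 at 37 °C in HEPES-buffered HBSS (pH 7.4). Efficacy is expressed relative to the reference agonist Lundbeck Cmp 1a, set as 100%.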

GPR139 [3] = target: T2, GPR139; experiment: Ca2+ mobilization assay, antagonist mode (EC80 800 nM Lundbeck Cmp 1a after 20 min preincubation), GPR139-CHOk1; details: individual replicates (Supplementary Figure 4)
Outline: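 Antagonist mode: 800 nM (EC80) reference agonist Lundbeck Cmp 1a added following 20 min pre-incubation with 10 µM compound. GPR139-CHOk1 cells, Fluo-4 dye, probenecid-containing HEPES buffer pH 7.4; intracellular Ca2+ measured at 37 °C (ex 485, em 525 nm).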

[4] = Agonist mode, individual replicates (Supplementary Figure 4)
[5] = Supplementary Table 2, mean ± SEM
[6] = log [Compound] M = -4.5, individual replicate columns
[7] = log [Compound] M = -5.0, individual replicate columns
[8] = log [Compound] M = -5.5, individual replicate columns
[9] = log [Compound] M = -6.0, individual replicate columns
[10] = log [Compound] M = -6.5, individual replicate columns
[11] = log [Compound] M = -7.0, individual replicate columns
[12] = log [Compound] M = -7.5, individual replicate columns
[13] = log [Compound] M = -8.0, individual replicate columns
[14] = log [Compound] M = -8.5, individual replicate columns
[15] = log [Compound] M = -9.0, individual replicate columns
[16] = Supplementary Table 2, mean ± SEM, read-out: pEC50 Ca2+ (converted)

Structure (SMILES) | Ca2+ signal (% of Carbachol) [1] | Ca2+ signal (% of Cmp 1a) (GPR139 [2]; [4]) | EC50 (GPR139 [2]; GPR139-CHOk1, read-out: EC50, Ca2+ mobilization) [nM] | Emax (GPR139 [2]; [5]) [%] | Ca2+ signal (% of Cmp 1a) (GPR139 [2]; [6]) | Ca2+ signal (% of Cmp 1a) (GPR139 [2]; [7]) | Ca2+ signal (% of Cmp 1a) (GPR139 [2]; [8]) | Ca2+ signal (% of Cmp 1a) (GPR139 [2]; [9]) | Ca2+ signal (% of Cmp 1a) (GPR139 [2]; [10]) | Ca2+ signal (% of Cmp 1a) (GPR139 [2]; [11]) | Ca2+ signal (% of Cmp 1a) (GPR139 [2]; [12]) | Ca2+ signal (% of Cmp 1a) (GPR139 [2]; [13]) | Ca2+ signal (% of Cmp 1a) (GPR139 [2]; [14]) | Ca2+ signal (% of Cmp 1a) (GPR139 [2]; [15]) | Ca2+ signal (% of Cmp 1a) (GPR139 [3]) | EC50 (GPR139 [2]; [16]) [nM] | fold decrease in potency relative to a similar phenyl substituted compound (1.3) (GPR139 [2])
COc1cccc(-c2nc(CC(=O)NC(C)c3ccccc3)no2)c1 (centres unmarked) [Compound 1.10, COC1=CC(C2=NC(CC(NC(C3=CC=CC=C3)C)=O)=NO2)=CC=C1] | 12 % of Carbachol and -9 % of Carbachol and 13 % of Carbachol | 119 % of Cmp 1a and 102 % of Cmp 1a and 114 % of Cmp 1a | 200 | 111 ± 5 | 112 % of Cmp 1a and 110 % of Cmp 1a and 101 % of Cmp 1a | 114 % of Cmp 1a (2×) and 92 % of Cmp 1a | 118 % of Cmp 1a and 113 % of Cmp 1a and 104 % of Cmp 1a | 92 % of Cmp 1a and 83 % of Cmp 1a and 79 % of Cmp 1a | 70 % of Cmp 1a and 58 % of Cmp 1a and 60 % of Cmp 1a | 51 % of Cmp 1a and 30 % of Cmp 1a and 40 % of Cmp 1a | 20 % of Cmp 1a and 5.67 % of Cmp 1a and 19 % of Cmp 1a | 10 % of Cmp 1a and -8 % of Cmp 1a and 0.333 % of Cmp 1a | 11 % of Cmp 1a and -17 % of Cmp 1a and 4 % of Cmp 1a | 16 % of Cmp 1a and -3 % of Cmp 1a and 6.33 % of Cmp 1a | 0.667 % of Cmp 1a and -2.67 % of Cmp 1a and -13 % of Cmp 1a |  | 
Cc1nonc1Cc1nc(CC(=O)NC(C)c2ccccc2)no1 (centres unmarked) [Compound 1.33, CC(C1=CC=CC=C1)NC(CC2=NOC(CC3=NON=C3C)=N2)=O] | -5 % of Carbachol and 8 % of Carbachol and 10 % of Carbachol | 66 % of Cmp 1a and 46 % of Cmp 1a and 64 % of Cmp 1a |  | 88 ± 2 | 85 % of Cmp 1a (2×) and 90 % of Cmp 1a and 83 % of Cmp 1a | 66 % of Cmp 1a and 64 % of Cmp 1a and 75 % of Cmp 1a and 85 % of Cmp 1a | 43 % of Cmp 1a and 39 % of Cmp 1a and 20 % of Cmp 1a and 51 % of Cmp 1a | 15 % of Cmp 1a and 21 % of Cmp 1a and 26 % of Cmp 1a and -5 % of Cmp 1a | 7 % of Cmp 1a and 26 % of Cmp 1a and 10 % of Cmp 1a and -17 % of Cmp 1a | -3.33 % of Cmp 1a and 29 % of Cmp 1a and 0 % of Cmp 1a and -12 % of Cmp 1a | 3 % of Cmp 1a and 6.33 % of Cmp 1a and 6 % of Cmp 1a and -13 % of Cmp 1a | 1 % of Cmp 1a and 1.67 % of Cmp 1a and 3 % of Cmp 1a and -15 % of Cmp 1a | 1.33 % of Cmp 1a (2×) and -3 % of Cmp 1a and -12 % of Cmp 1a | 4.33 % of Cmp 1a and 6.33 % of Cmp 1a and 12 % of Cmp 1a and -16 % of Cmp 1a | 30 % of Cmp 1a and 49 % of Cmp 1a and 42 % of Cmp 1a | 3980 | 
Cc1ccnc(-c2nc(CC(=O)NC(C)c3ccccc3)no2)c1 (centres unmarked) [Compound 1.17, CC(C1=CC=CC=C1)NC(CC2=NOC(C3=NC=CC(C)=C3)=N2)=O] | -5.46 % of Carbachol and 6 % of Carbachol and 7.55 % of Carbachol | 56 % of Cmp 1a and 85 % of Cmp 1a and 81 % of Cmp 1a |  | 98 ± 3 | 97 % of Cmp 1a (2×) and 99 % of Cmp 1a and 98 % of Cmp 1a and 90 % of Cmp 1a | 111 % of Cmp 1a and 99 % of Cmp 1a and 92 % of Cmp 1a and 73 % of Cmp 1a and 91 % of Cmp 1a | 133 % of Cmp 1a and 107 % of Cmp 1a and 62 % of Cmp 1a and 54 % of Cmp 1a and 75 % of Cmp 1a | 82 % of Cmp 1a and 74 % of Cmp 1a and 57 % of Cmp 1a and 42 % of Cmp 1a and 56 % of Cmp 1a | 39 % of Cmp 1a and 41 % of Cmp 1a and 22 % of Cmp 1a and 13 % of Cmp 1a and 21 % of Cmp 1a | 27 % of Cmp 1a and 24 % of Cmp 1a and 4.3 % of Cmp 1a and 2.59 % of Cmp 1a and 7 % of Cmp 1a | 12 % of Cmp 1a (2×) and -2.74 % of Cmp 1a and 7 % of Cmp 1a and 4.7 % of Cmp 1a | 7 % of Cmp 1a and 3 % of Cmp 1a and -1 % of Cmp 1a and 10 % of Cmp 1a and 2.65 % of Cmp 1a | 7 % of Cmp 1a and 1.19 % of Cmp 1a and 6 % of Cmp 1a (2×) and 3 % of Cmp 1a | 11 % of Cmp 1a and 1.67 % of Cmp 1a and 3 % of Cmp 1a and 4.53 % of Cmp 1a and 4.33 % of Cmp 1a | 4 % of Cmp 1a and 35 % of Cmp 1a and 2.33 % of Cmp 1a | 794 | 4- to 16 fold
Cc1cc(-c2nc(CC(=O)NC(C)c3ccccc3)no2)on1 (centres unmarked) [Compound 1.30, CC(C1=CC=CC=C1)NC(CC2=NOC(C3=CC(C)=NO3)=N2)=O] | 4 % of Carbachol and -9 % of Carbachol and 13 % of Carbachol | 70 % of Cmp 1a and 59 % of Cmp 1a and 57 % of Cmp 1a |  | 79 ± 3 | 86 % of Cmp 1a and 79 % of Cmp 1a and 75 % of Cmp 1a | 85 % of Cmp 1a and 68 % of Cmp 1a (2×) | 52 % of Cmp 1a and 50 % of Cmp 1a (2×) | -11 % of Cmp 1a and 14 % of Cmp 1a and 19 % of Cmp 1a | -12 % of Cmp 1a and 7 % of Cmp 1a (2×) | -10 % of Cmp 1a and 8 % of Cmp 1a and -3 % of Cmp 1a | -14 % of Cmp 1a and 7 % of Cmp 1a and -8 % of Cmp 1a | -5.33 % of Cmp 1a and 5.67 % of Cmp 1a and 1.67 % of Cmp 1a | -11 % of Cmp 1a and -3 % of Cmp 1a and 1.67 % of Cmp 1a | 10 % of Cmp 1a and 7 % of Cmp 1a and 3.67 % of Cmp 1a | 46 % of Cmp 1a and 28 % of Cmp 1a and 13 % of Cmp 1a | 2510 | 
Cc1cncc(-c2nc(CC(=O)NC(C)c3ccccc3)no2)c1 (centres unmarked) [Compound 1.24, CC(C1=CC=CC=C1)NC(CC2=NOC(C3=CC(C)=CN=C3)=N2)=O] | -0.598 % of Carbachol and 5 % of Carbachol and 4.73 % of Carbachol | 83 % of Cmp 1a and 52 % of Cmp 1a and 78 % of Cmp 1a |  | 91 ± 4 | 103 % of Cmp 1a and 95 % of Cmp 1a and 70 % of Cmp 1a and 88 % of Cmp 1a and 90 % of Cmp 1a | 68 % of Cmp 1a and 86 % of Cmp 1a and 73 % of Cmp 1a and 72 % of Cmp 1a and 97 % of Cmp 1a | 50 % of Cmp 1a and 66 % of Cmp 1a and 58 % of Cmp 1a and 47 % of Cmp 1a and 97 % of Cmp 1a | 24 % of Cmp 1a and 41 % of Cmp 1a and 39 % of Cmp 1a and 38 % of Cmp 1a and 62 % of Cmp 1a | 1.31 % of Cmp 1a and 19 % of Cmp 1a and 31 % of Cmp 1a and 8.44 % of Cmp 1a and 34 % of Cmp 1a | 2.29 % of Cmp 1a and 0.399 % of Cmp 1a and 4 % of Cmp 1a and 2 % of Cmp 1a and 17 % of Cmp 1a | -0.0494 % of Cmp 1a and 2.8 % of Cmp 1a and -5.43 % of Cmp 1a and 8 % of Cmp 1a and 5.52 % of Cmp 1a | -0.83 % of Cmp 1a and 7.38 % of Cmp 1a and -0.358 % of Cmp 1a and 15 % of Cmp 1a and 4 % of Cmp 1a | 3.55 % of Cmp 1a and 3 % of Cmp 1a and -1.51 % of Cmp 1a and 6 % of Cmp 1a and 3.35 % of Cmp 1a | 2 % of Cmp 1a and 1.41 % of Cmp 1a and 6 % of Cmp 1a and 4 % of Cmp 1a and 3 % of Cmp 1a | 5.33 % of Cmp 1a and 17 % of Cmp 1a and -8 % of Cmp 1a | 1580 | 4- to 16 fold
